Read-outs that look alike come from different tables or passages of the source. Where a SMILES comes first, the peptide text is derived from it. Bridges are numbered along the chain shown (N, C = ends). Where no end group is shown, it is not given here. [ ]: non-standard residue; d: D form. R8 = C=CCCCCCC[C@@](C)(N)C(=O)O; S5 = C=CCCC[C@](C)(N)C(=O)O

In series [1] the test system is MDA-MB-468 breast cancer cells. It counts as cell-based, human. The conditions noted are these: 24 h. An excerpt: Fig. 1 Hydrocarbon stapling leads to increased EJ1 activity in comparison to HER-directed monoclonal therapies. a EJ1 sequence with PTD4 domain (underlined) corresponding to EGFR juxtamembrane domain sequence 643–663. Stabilized alpha helix (SAH) variations 1–5 beneath, with asterisks (*) indicating sites of staple. Control peptide (CP) with altered residues indicated by double underline. Stapled control (5) asterisks (*) indicate sites of staple. b Cartoon representation of EJ1 structure, with staple variation 5 highlighted. Positively charged residues indicated in blue, negatively charged residues in red. c Cartoon representation of CP structure, with staple variation highlighted. d Cell viability assay performed in MDA-MB-468 cells after 24 h comparing unstapled EJ1 versus staple variations SAH1, SAH4, and SAH5, with increasing concentrations. e Visualization of MDA-MB-468 cells untreated, treated with 10 µM EJ1, and 10 µM SAH5-EJ1 after 60 min. Scale bars represent 50 µm. f–h Cell viability assay performed in MDA-MB-468, MCF10A, or CHO cells over 3 days comparing treatment with Sapitinib (blue lines), SAH5-EJ1 (red lines), and SAH5-CP (grey lines). […] Data shown in d, f, g–i represent mean ± percent difference of assays performed in triplicate 1000–3000 cells were plated in 96-well plates (Falcon; Corning, NY) and allowed to adhere for 24–48 h prior to therapeutic introduction. Compounds were added and incubated on cells for 3 days in serum-containing media, followed by 2 h treatment with MTT (Sigma M5655) with the resulting formazan solubilized in DMSO. Absorbance was read at 540 nm by plate reader (uQuant, Bio-Tek Instruments). P-values were calculated from a one-way ANOVA.

For series [2] the following is noted: cited from earlier work. The text has this:
Despite variations in extracellular ligand binding abilities and intracellular tyrosine kinase activity, HER1-3 share homology in their juxtamembrane domain [15]. Within the juxtamembrane domain are sequences responsible for targeting HER proteins to the nucleus, binding to calcium/calmodulin, trafficking to the basolateral domain from the trans-Golgi network, and dimerization, an event required for HER activation and downstream signaling.

A further series deals with CHO cells. As to the kind of experiment: Cell viability assay (MTT), CHO. It counts as cell-based, Chinese Hamster. The conditions noted are these: up to 3 days. The text has this: (§1) Fig. 1 Hydrocarbon stapling leads to increased EJ1 activity in comparison to HER-directed monoclonal therapies. a EJ1 sequence with PTD4 domain (underlined) corresponding to EGFR juxtamembrane domain sequence 643–663. Stabilized alpha helix (SAH) variations 1–5 beneath, with asterisks (*) indicating sites of staple. Control peptide (CP) with altered residues indicated by double underline. Stapled control (5) asterisks (*) indicate sites of staple. b Cartoon representation of EJ1 structure, with staple variation 5 highlighted. Positively charged residues indicated in blue, negatively charged residues in red. c Cartoon representation of CP structure, with staple variation highlighted. d Cell viability assay performed in MDA-MB-468 cells after 24 h comparing unstapled EJ1 versus staple variations SAH1, SAH4, and SAH5, with increasing concentrations. e Visualization of MDA-MB-468 cells untreated, treated with 10 µM EJ1, and 10 µM SAH5-EJ1 after 60 min. Scale bars represent 50 µm. f–h Cell viability assay performed in MDA-MB-468, MCF10A, or CHO cells over 3 days comparing treatment with Sapitinib (blue lines), SAH5-EJ1 (red lines), and SAH5-CP (grey lines). […] Absorbance was read at 540 nm by plate reader (uQuant, Bio-Tek Instruments). P-values were calculated from a one-way ANOVA.

For another series, the system named is MCF10A breast cells. As to the kind of experiment: Cell viability assay (MTT), MCF10A. It counts as cell-based, human. The conditions noted are these: 72 h of treatment, maximum reduction.
Excerpt: as §1

Series [3] concerns SUM149 inflammatory breast cancer cells. Format: cell-based. The conditions noted are these: SUM149, 10 µM. As to the method:
1000–3000 cells were plated in 96-well plates (Falcon; Corning, NY) and allowed to adhere for 24–48 h prior to therapeutic introduction. Compounds were added and incubated on cells for 3 days in serum-containing media, followed by 2 h treatment with MTT (Sigma M5655) with the resulting formazan solubilized in DMSO. Absorbance was read at 540 nm by plate reader (uQuant, Bio-Tek Instruments). P-values were calculated from a one-way ANOVA.
Fig. 4 SAH5-EJ1 effectively treats models of basal and inflammatory breast cancers while increasing survival. a Changes in tumor burden in breast cancer PDX mouse model TM01278 with various concentrations of intravenous SAH5-EJ1. Control represents water as a vehicle control. *p < 0.05 (Control vs 1 µg/g); **p < 0.01 (Control vs 1 µg/g and vs 10 µg/g). N = 6 for each condition. b Kaplan–Meier curve of breast PDX mouse model treated with control (blue) or either 1 or 10 µg/g SAH5-EJ1 (green and red, respectively) (red asterisks indicate time point at which mice could no longer receive injections due to site toxicity). Data shown represent mean. N = 6 for all groups. c Cell viability assay performed in SUM149 cells over 3 days comparing treatment with Sapitinib (blue) to SAH5-EJ1 (red) and SAH5-CP (grey). Solid lines represent 24 h; dashed lines represent 72 h. Data shown represent mean ± percent difference of assays performed in triplicate. d Kaplan–Meier curve of inflammatory breast cancer SUM149-injected mouse model treated with injected control (water) (blue) or either 0.5 or 5 µg/g SAH5-EJ1 (green and red, respectively). Data shown represent mean. N = 8 for all groups. e Changes in tumor burden in SUM149-generated tumors with various doses of SAH5-EJ1. Control represents water (blue). Arrow indicates transition from intravenous (IV) SAH5-EJ1 injections to intraperitoneal (IP) on day 66. **p < 0.01 (Control vs 0.5 µg/g and vs 5 µg/g). Data shown represent mean ± standard deviation. N = 8 for all groups. f Images of mouse tumors taken on Day 116. Arrowheads indicate tumor site. Representative images selected. […]

In the case of YARAAARQARAFMRRRHIVRKRTLRRLLQERE [EJ1], the IC50 – broadly, the midpoint of a concentration-inhibition curve – in series [1] was determined as 18 µM. The “time to degradation when introduced to plasma” value in series [2] was “less than 5 min”.
On to `CNC(=O)CN1CCC(Oc2cc3c(Nc4cccc(Cl)c4F)ncnc3cc2OC)CC1` [Sapitinib, reference compound], for which, in the series on CHO cells, the “efficacy / response in words” value is recorded as “limited efficacy”. Moreover, the “reduction of cell viability” value in the series on MCF10A breast cells is listed as ≤ 70%. The cell viability (usually the share of living cells, or the viability signal relative to a control) is listed as “no reduction in cell viability” in series [3] (24 h) and 35% in series [3] (3 days).
The molecule `CC[C@H](C)[C@H](NC(=O)[C@H](Cc1c[nH]cn1)NC(=O)[C@H](CCCNC(=N)N)NC(=O)[C@H](CCCNC(=N)N)NC(=O)[C@H](CCCNC(=N)N)NC(=O)[C@H](CCSC)NC(=O)[C@H](Cc1ccccc1)NC(=O)[C@H](C)NC(=O)[C@H](CCCNC(=N)N)NC(=O)[C@H](C)NC(=O)[C@H](CCC(N)=O)NC(=O)[C@H](CCCNC(=N)N)NC(=O)[C@H](C)NC(=O)[C@H](C)NC(=O)[C@H](C)NC(=O)[C@H](CCCNC(=N)N)NC(=O)[C@H](C)NC(=O)[C@@H](N)Cc1ccc(O)cc1)C(=O)N[C@]1(C)CCCCCCC=CCCC[C@@](C)(C(=O)N[C@@H](CC(C)C)C(=O)N[C@@H](CC(C)C)C(=O)N[C@@H](CCC(N)=O)C(=O)N[C@@H](CCC(=O)O)C(=O)N[C@@H](CCCNC(=N)N)C(=O)N[C@@H](CCC(=O)O)C(N)=O)NC(=O)[C@H](CCCNC(=N)N)NC(=O)[C@H](CC(C)C)NC(=O)[C@H]([C@@H](C)O)NC(=O)[C@H](CCCNC(=N)N)NC(=O)[C@H](CCCCN)NC(=O)[C@H](CCCNC(=N)N)NC1=O` [SAH1-EJ1] (H-YARAAARQARAFMRRRHI[R8]RKRTLR[S5]LLQERE-NH2; staple 19-26) showed an IC50 in series [1] of 10 µM.
As to `CC[C@H](C)[C@@H]1NC(=O)[C@H](Cc2c[nH]cn2)NC(=O)[C@H](CCCNC(=N)N)NC(=O)[C@H](CCCNC(=N)N)NC(=O)[C@H](CCCNC(=N)N)NC(=O)[C@](C)(NC(=O)[C@H](Cc2ccccc2)NC(=O)[C@H](C)NC(=O)[C@H](CCCNC(=N)N)NC(=O)[C@H](C)NC(=O)[C@H](CCC(N)=O)NC(=O)[C@H](CCCNC(=N)N)NC(=O)[C@H](C)NC(=O)[C@H](C)NC(=O)[C@H](C)NC(=O)[C@H](CCCNC(=N)N)NC(=O)[C@H](C)NC(=O)[C@@H](N)Cc2ccc(O)cc2)CCCCCCC=CCCC[C@@](C)(C(=O)N[C@@H](CCCCN)C(=O)N[C@@H](CCCNC(=N)N)C(=O)N[C@H](C(=O)N[C@@H](CC(C)C)C(=O)N[C@@H](CCCNC(=N)N)C(=O)N[C@@H](CCCNC(=N)N)C(=O)N[C@@H](CC(C)C)C(=O)N[C@@H](CC(C)C)C(=O)N[C@@H](CCC(N)=O)C(=O)N[C@@H](CCC(=O)O)C(=O)N[C@@H](CCCNC(=N)N)C(=O)N[C@@H](CCC(=O)O)C(N)=O)[C@@H](C)O)NC(=O)[C@H](C(C)C)NC1=O` [SAH4-EJ1] (H-YARAAARQARAF[R8]RRRHIV[S5]KRTLRRLLQERE-NH2; staple 13-20), it took 10 µM to reach half-maximal inhibition in series [1] (IC50).

Source of the values: PMC6582486, “Stapled EGFR peptide reduces inflammatory breast cancer and inhibits additional HER-driven models of cancer” (Journal of Translational Medicine, 2019).
